Measured values: patent publication US20090047335A1, “Anti-angiogenic peptides and methods of use thereof” (SOPHERION THERAPEUTICS, INC., priority 2004, published 2009)
Where “and” joins values, the source holds several entries; their conditions need not be identical. Identical values can stand only once.

How the values were obtained:
[1] = test system: human breast cancer MDA-MB231 tumor xenografts; test: Human breast cancer MDA-MB231 tumor xenografts in nude mice: caliper and actual tumor weight, necrotic score; type: in vivo; details: Docetaxel group
Method: The peptides of the invention were tested in an in vivo model of anti-tumor activity. This model compares the growth of the human breast cancer MDA-MB231 tumor xenografts in nude mice treated with 10 mg/kg or 20 mg/kg daily ip of ST100,059, docetaxel or saline.
Female nude mice (nu/nu) between 5 and 6 weeks of age weighing approximately 20 g were obtained from Harlan, Inc. Animals were implanted subcutaneously (s.c.) by trocar with fragments of human tumors harvested from s.c. grown tumors in nude mice hosts. When the tumors were approximately 60-75 mg in size (about 10-15 days following implantation), the animals were pair-matched into treatment and control groups. Each group contained 8-10 mice, each of which is ear-tagged and followed individually throughout the experiment.
The administration of drugs or controls began the day the animals were pair-matched with tumor size of about 70 mg (Day 1). Mice were weighed and tumor measurements were obtained using calipers twice weekly, starting on Day 1. These tumor measurements were converted to mg tumor weight by the standard formula, (W^2×L)/2. Upon termination of the experiment, the mice were weighed, sacrificed and their tumors were excised. The tumors were weighed, and the mean and medium tumor weight per group was calculated.
For each group, the table reports the caliper measurements and the actual tumor weights obtained as described above.

[2] = test system: Mouse B16-F1 melanoma cells; test: Growth of subcutaneous B16 melanoma tumor in C57BL/6 mice; type: in vivo; set-up: unit not given beside the values; details: group average, Doxorubicin group
Method: The peptides of the invention were tested in an in vivo model of anti-tumor activity. This model compares the growth of subcutaneous B16 melanoma tumor either untreated or treated with either 20 mg/kg, 40 mg/kg, 100 mg/kg daily ip doses of ST100,059.
Male C57BL/6 mice were obtained with a mean body weight of 20±2 g. Mouse B16-F1 melanoma cells were implanted subcutaneously (5×10^5 cell per animal). Peptides (formulated in water) were administered ip daily starting the day after injection of cells. Tumors became palpable around 9 days after injection of the cells. Tumors were then measured every 2 days.

in vitro = in vitro ADME, bovine; details: serum
Method: A stock solution of 1 mM peptide dissolved in water was made. The stock was then diluted to 100 μM in either OptiMem medium+100 units/ml of penicillin and 100 μg/ml streptomycin sulfate+1% fetal bovine serum or in OptiMem+Pen/Strep+10% fetal bovine serum. The diluted samples were placed in a 24-well tissue culture plate in an incubator at 37 degrees. Aliquots of 50-100 μl were removed at 4, 6, 18, 24, 48 and 72 hrs and frozen at −70° C. until analysis.
Samples of 20 μl were separated on a C18 reverse phase column (4.8×250 mm) with a gradient of acetonitrile/water 0.1% TFA and analyzed using a single quad mass spectrometer. Singly or multiply charged peaks were detected depending on the mass of the peptide. Peptide degradation was determined in two ways: loss of peak area in the chromatogram produced using the mass spectrometer as the detector and loss of the main peak in the mass spectrum with simultaneous appearance of a peak(s) from a breakdown product.

[3] = test system: bovine retinal endothelial cells (BRE); test: VEGF mediated survival/proliferation of BRE cells, WST-1 assay, peptides added at plating (before cells adhered); type: cell-based; details: VEGF 25 ng/ml, 72 h; for WST-1 induced colorimetric change measured at 440 nm, average: average of wells; for WST-1 induced colorimetric change measured at 440 nm: single wells, 1% FBS
Method: The anti-angiogenic activities of the peptides were tested by measuring the level of inhibition of VEGF mediated survival/proliferation of bovine retinal endothelial cells (BRE), a standard cell line used to test anti-angiogenic compounds. Cells were maintained in Cambrex EGM-2MV medium. On day one cells were starved for either 6 hours or overnight, and thereafter trypsinized and plated in a 96 well plate in 100 μl of Invitrogen OptiMem+1% fetal bovine serum. A 100 μl aliquot of Invitrogen OptiMem+1% fetal bovine serum was then added to the wells in addition to, where appropriate, VEGF to a final concentration of 25 ng/ml and the various peptides to final concentration of 12.5, 25, 50 and 100 μg/ml. After 72 hours incubation, the number of live cells in each well was determined using the WST-1 assay (Roche).
The experiment was repeated using higher concentrations of peptide, to a maximum concentration of 200 μg/ml. This required the addition of a substantial amount of water (the peptides are soluble in water and are maintained as stock solution of 2 mg/ml). Therefore, we tested whether the addition of water itself would have any inhibitory effects. As before, BRE were maintained in Cambrex EGM-2MV medium. On day one, cells were starved for either 6 hours or overnight, and thereafter trypsinized and plated in a 96 well plate in 100 μl of OptiMem+1% fetal bovine serum. A 100 μl aliquot of OptiMem+1% fetal bovine serum was then added to the wells, further containing, where appropriate, VEGF to a final concentration of 25 ng/ml and the various peptides to final concentration of 25, 50, 100 and 200 μg/ml. After 72 hours incubation, the amount of live cells in each well was measured using the WST-1 assay (Roche). […]

[4] = test system: VEGF-induced angiogenesis; test: VEGF-induced angiogenesis in Matrigel angio-reactors in FVB/N mice, FITC-dextran fluorescence; type: in vivo
Method: The peptides of the invention were also tested in an in vivo model of anti-angiogenic activity. This model analyzes VEGF-induced angiogenesis as it occurs in angio-reactors filled with Matrigel in wild-type FVB/N mice (Guedez et al., 2003, Am. J. Pathol. 162:1431-1439).
• Sterile, polyethene tubing (0.14 cm internal diameter) is cut to standard 1 cm lengths using a plexiglass template and single edge razor blade. These tubes are sealed at one end with nail-polish. Into the tubes, 20 μl of Matrigel (growth factor free obtained from BD Biosciences) containing 500 ng/ml VEGF with or without the indicated peptides is injected. After one hour of polymerization of the Matrigel at room temperature the angio-reactors are subcutaneously implanted into both flanks of wild-type FVB/N female mice (8-10 weeks old).
• After 10 days, angiogenesis in the angio-reactors is determined. Mice receive a 100 μl injection of 25 mg/ml of FITC-dextran in phosphate-buffered saline (PBS) via tail vein 20 minutes before collection of the angio-reactors. Quantification of vessel functionality is performed by removal of the Matrigel from the angio-reactors and the fluorescence is measured using a FLUOstar Galaxy microplate reader (excitation 485 nm, emission 520 nm, BMG Labtechnologies GmbH, Germany). The mean relative fluorescence±SD for 10 angio-reactors is determined and statistical analysis performed.

[5] = experiment 2, Bonferroni's Multiple Comparison Test

## CC(=O)O[C@@]12CO[C@@H]1C[C@H](O)[C@@]1(C)C(=O)[C@H](O)C3=C(C)[C@@H](OC(=O)[C@H](O)[C@@H](NC(=O)OC(C)(C)C)c4ccccc4)C[C@@](O)([C@@H](OC(=O)c4ccccc4)[C@H]21)C3(C)C [Docetaxel]
[1]; group average
  actual tumor weight, Average: 1523 mg
  caliper tumor weight, Average: 1742.22 mg
[1]; group median
  actual tumor weight, Median: 35 mg
  caliper tumor weight, Median: 75 mg
[1]; individual mouse, caliper measurement converted by (W^2×L)/2, at termination
  caliper tumor weight: 87.5 mg and 32 mg (2×) and 48 mg and 75 mg (2×) and 288 mg and 126 mg (2×)
[1]; individual mouse, excised tumor weighed
  actual tumor weight: 54 mg and 10 mg and 18 mg and 26 mg and 35 mg and 225 mg and 25 mg and 82 mg and 46 mg

## COc1cccc2c1C(=O)c1c(O)c3c(c(O)c1C2=O)C[C@@](O)(C(=O)CO)C[C@@H]3O[C@H]1C[C@H](N)[C@H](O)[C@H](C)O1 [Doxorubicin]
[2]; Day 11
  subcutaneous B16 melanoma tumor measurement, Average: 213.41
[2]; Day 13
  subcutaneous B16 melanoma tumor measurement, Average: 419.71
[2]; Day 15
  subcutaneous B16 melanoma tumor measurement, Average: 744.61
[2]; Day 16
  subcutaneous B16 melanoma tumor measurement, Average: 1261.33

## CC(C)C[C@H](NC(=O)[C@H](CO)NC(=O)[C@@H](NC(=O)[C@H](C)N)[C@@H](C)O)C(=O)N1CCC[C@H]1C(=O)N1CCC[C@H]1C(=O)N[C@@H](Cc1c[nH]cn1)C(=O)N[C@@H](CO)C(=O)N[C@@H](CO)C(=O)N[C@@H](CCC(N)=O)C(=O)N[C@@H](CO)C(=O)N1CCC[C@H]1C(=O)O [ST100,038, ATSLPPHSSQSP]
In vitro; bovine, 18 h
  peptide remaining (in words): none remained
In vitro
  metabolised at 4 h, 100 μM: 50%
  metabolised at 6 h, 100 μM: 65%
  metabolised at 18 h, 100 μM: 25%
  metabolised at 24 h, 100 μM: 33%
  metabolised at 48 h, 100 μM: 60%
  metabolised at 72 h, 100 μM: 85%

## LPPHSS (listed as Homo sapiens) [ST100,037]
[3]; peptide 12.5 μg/ml, Table 2
  WST-1 induced colorimetric change measured at 440 nm, average: 0.753
  WST-1 induced colorimetric change measured at 440 nm: 0.780 and 0.730 and 0.748
[3]; peptide 25 μg/ml, Table 2
  WST-1 induced colorimetric change measured at 440 nm, average: 0.708
  WST-1 induced colorimetric change measured at 440 nm: 0.716 and 0.713 and 0.695
[3]; peptide 25 μg/ml, Table 3
  WST-1 induced colorimetric change measured at 440 nm, average: 0.449
  WST-1 induced colorimetric change measured at 440 nm: 0.439 and 0.432 and 0.476
[3]; peptide 50 μg/ml, Table 2
  WST-1 induced colorimetric change measured at 440 nm, average: 0.643
  WST-1 induced colorimetric change measured at 440 nm: 0.636 and 0.659 and 0.633
[3]; peptide 50 μg/ml, Table 3
  WST-1 induced colorimetric change measured at 440 nm, average: 0.442
  WST-1 induced colorimetric change measured at 440 nm: 0.427 and 0.438 and 0.462
[3]; peptide 100 μg/ml, Table 2
  WST-1 induced colorimetric change measured at 440 nm, average: 0.694
  WST-1 induced colorimetric change measured at 440 nm: 0.692 and 0.697 and 0.694
[3]; peptide 100 μg/ml, Table 3
  WST-1 induced colorimetric change measured at 440 nm, average: 0.466
  WST-1 induced colorimetric change measured at 440 nm: 0.449 and 0.486 and 0.462
[3]; peptide 200 μg/ml, Table 3
  WST-1 induced colorimetric change measured at 440 nm, average: 0.386
  WST-1 induced colorimetric change measured at 440 nm: 0.384 and 0.401 and 0.372

## LPPHSSQSP ((1)..(1) May be biotinylated; listed as Homo sapiens) [ST100,039]
[3]; peptide 12.5 μg/ml, Table 2
  WST-1 induced colorimetric change measured at 440 nm, average: 0.686
  WST-1 induced colorimetric change measured at 440 nm: 0.701 and 0.735 and 0.621
[3]; peptide 25 μg/ml, Table 2
  WST-1 induced colorimetric change measured at 440 nm, average: 0.656
  WST-1 induced colorimetric change measured at 440 nm: 0.717 and 0.687 and 0.564
[3]; peptide 25 μg/ml, Table 3
  WST-1 induced colorimetric change measured at 440 nm, average: 0.462
  WST-1 induced colorimetric change measured at 440 nm: 0.411 and 0.495 and 0.480
[3]; peptide 50 μg/ml, Table 2
  WST-1 induced colorimetric change measured at 440 nm, average: 0.576
  WST-1 induced colorimetric change measured at 440 nm: 0.605 and 0.593 and 0.530
[3]; peptide 50 μg/ml, Table 3
  WST-1 induced colorimetric change measured at 440 nm, average: 0.496
  WST-1 induced colorimetric change measured at 440 nm: 0.489 and 0.507 and 0.491
[3]; peptide 100 μg/ml, Table 2
  WST-1 induced colorimetric change measured at 440 nm, average: 0.609
  WST-1 induced colorimetric change measured at 440 nm: 0.659 and 0.588 and 0.581
[3]; peptide 100 μg/ml, Table 3
  WST-1 induced colorimetric change measured at 440 nm, average: 0.478
  WST-1 induced colorimetric change measured at 440 nm: 0.451 and 0.517 and 0.465
[3]; peptide 200 μg/ml, Table 3
  WST-1 induced colorimetric change measured at 440 nm, average: 0.443
  WST-1 induced colorimetric change measured at 440 nm: 0.416 and 0.453 and 0.459

## SPWSSCSVTCGDGVITRIR (listed as Homo sapiens) [TSP616]
[4]; experiment 1, group mean, VEGF + inhibitor 40 μM
  relative fluorescence (FITC-dextran) of angio-reactors, mean: 6111
[4]; [5]
  Mean Diff., pbs vs inhibitor group: −0.5
  Mean Diff., vegf vs inhibitor group: 2645
[4]; experiment 2, group average
  relative fluorescence of angio-reactors, average: 635
[4]; experiment 2, group median
  relative fluorescence of angio-reactors, median: 484
